Results reported in paper PMC5078040 (Oncotarget, 2016).

Columns and labels:
[1] = system: panel of cancer cell lines derived from B-cell malignancies; test: Anti-proliferative assay (panel summary); type: cell-based; conditions: Homo sapiens; most of the cell lines including AML, B-cell lymphoma and multiple myeloma cell lines
Protocol: (§1) Cells were grown in 96-well culture plates (3000-4000/well). […] Cell proliferation was determined after treatment with compounds for 72 hours. Cell viability was measured using the CellTiter–Glo Assay Kit (Promega, USA), according to the manufacturer's instructions, and luminescence was measured in a multi-label reader (Envision, PerkinElmer, USA). Data were normalized to control groups (DMSO) and represented by the mean of three independent measurements with standard error <20%. GI50 values were calculated using Prism 5.0 (GraphPad Software, San Diego, CA).

MLK1 = molecular target: T1, MLK1 (Homo sapiens, UniProt P80192); test: KinomeScan; type: binding; conditions: 1uM
T1 construct: purchased DiscoveRx KINOMEscan

TAK1 = molecular target: T2, TAK1 (Homo sapiens, UniProt O43318); test: KinomeScan; type: binding; conditions: 1uM
T2 construct: purchased DiscoveRx KINOMEscan

AML patient primary cell = test: Anti-proliferative efficacy against patient primary cells; type: cell-based; conditions: Homo sapiens
Protocol: Mononuclear cells were isolated from AML patients. Mononuclear cells were isolated by density gradient centrifugation through Ficoll-Plaque Plus (Amersham Pharmacia Biotech AB, Uppsala, Sweden) at 2000 rpm for 30 minutes, followed by two washes in 1X PBS. Freeze-thawed cells were then cultured in liquid culture (DMEM, supplemented with 20% FBS). All blood and bone marrow samples from AML patients were obtained through written consent under approval of the Dana Farber Cancer Institute Institutional Review Board. The ethics committees approved the consent procedure.
as §1

HUNK = molecular target: T3, HUNK (Homo sapiens, UniProt P57058); test: KinomeScan; type: binding; conditions: 1uM
T3 construct: purchased DiscoveRx KINOMEscan

IGF1R = molecular target: T4, IGF1R (Homo sapiens, UniProt P08069); test: KinomeScan; type: binding; conditions: 1uM
T4 construct: purchased DiscoveRx KINOMEscan

ALK(L1196M) = molecular target: T5, ALK(L1196M) (Homo sapiens, UniProt Q9UM73, L1196M); test: KinomeScan; type: binding; conditions: 1uM
T5 construct: purchased DiscoveRx KINOMEscan

TTK = molecular target: T6, TTK (Homo sapiens, UniProt P33981); test: KinomeScan; type: binding; conditions: 1uM
T6 construct: purchased DiscoveRx KINOMEscan

IRAK4 = molecular target: T7, IRAK4 (Homo sapiens, UniProt Q9NWZ3); test: KinomeScan; type: binding; conditions: 1uM
T7 construct: purchased DiscoveRx KINOMEscan

CAMKK2 = molecular target: T8, CAMKK2 (Homo sapiens, UniProt Q96RR4); test: KinomeScan; type: binding; conditions: 1uM
T8 construct: purchased DiscoveRx KINOMEscan

SgK110 = molecular target: T9, SgK110 (Homo sapiens, UniProt P0C264); test: KinomeScan; type: binding; conditions: 1uM
T9 construct: purchased DiscoveRx KINOMEscan
T9 sequence (P0C264 whole entry): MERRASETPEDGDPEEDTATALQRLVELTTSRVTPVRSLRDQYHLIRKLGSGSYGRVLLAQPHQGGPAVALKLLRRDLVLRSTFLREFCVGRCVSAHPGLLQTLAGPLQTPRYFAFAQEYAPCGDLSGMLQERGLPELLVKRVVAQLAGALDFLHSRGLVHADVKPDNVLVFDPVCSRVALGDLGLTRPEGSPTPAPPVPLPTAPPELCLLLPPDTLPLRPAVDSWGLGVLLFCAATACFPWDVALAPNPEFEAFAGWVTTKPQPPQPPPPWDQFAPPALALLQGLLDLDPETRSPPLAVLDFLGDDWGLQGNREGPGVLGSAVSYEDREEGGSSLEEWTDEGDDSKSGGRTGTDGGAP

LC3B II = test: Autophagy (western-blot); type: cell-based, human; conditions: 12 hours
Excerpt: Cells were then washed in PBS and lysed in cell lysis buffer and detected by western-blot using LC3B, GAPDH antibody (Cell signaling Technology).

CAMK2D = molecular target: T10, CAMK2D (Homo sapiens, UniProt Q13557); test: KinomeScan; type: binding; conditions: 1uM
T10 construct: purchased DiscoveRx KINOMEscan

GSK3B = molecular target: T11, GSK3B (Homo sapiens, UniProt P49841); test: KinomeScan; type: binding; conditions: 1uM
T11 construct: purchased DiscoveRx KINOMEscan

WEE1 = molecular target: T12, WEE1 (Homo sapiens, UniProt P30291); test: KinomeScan; type: binding; conditions: 1uM
T12 construct: purchased DiscoveRx KINOMEscan

ERK8 = molecular target: T13, ERK8 (Homo sapiens, UniProt Q8TD08); test: KinomeScan; type: binding; conditions: 1uM
T13 construct: purchased DiscoveRx KINOMEscan

CTK = molecular target: T14, CTK (Homo sapiens, UniProt P42679); test: KinomeScan; type: binding; conditions: 1uM
T14 construct: purchased DiscoveRx KINOMEscan

AXL = molecular target: T15, AXL (Homo sapiens, UniProt P30530); test: KinomeScan; type: binding; conditions: 1uM
T15 construct: purchased DiscoveRx KINOMEscan
T15 sequence (P30530 26-894): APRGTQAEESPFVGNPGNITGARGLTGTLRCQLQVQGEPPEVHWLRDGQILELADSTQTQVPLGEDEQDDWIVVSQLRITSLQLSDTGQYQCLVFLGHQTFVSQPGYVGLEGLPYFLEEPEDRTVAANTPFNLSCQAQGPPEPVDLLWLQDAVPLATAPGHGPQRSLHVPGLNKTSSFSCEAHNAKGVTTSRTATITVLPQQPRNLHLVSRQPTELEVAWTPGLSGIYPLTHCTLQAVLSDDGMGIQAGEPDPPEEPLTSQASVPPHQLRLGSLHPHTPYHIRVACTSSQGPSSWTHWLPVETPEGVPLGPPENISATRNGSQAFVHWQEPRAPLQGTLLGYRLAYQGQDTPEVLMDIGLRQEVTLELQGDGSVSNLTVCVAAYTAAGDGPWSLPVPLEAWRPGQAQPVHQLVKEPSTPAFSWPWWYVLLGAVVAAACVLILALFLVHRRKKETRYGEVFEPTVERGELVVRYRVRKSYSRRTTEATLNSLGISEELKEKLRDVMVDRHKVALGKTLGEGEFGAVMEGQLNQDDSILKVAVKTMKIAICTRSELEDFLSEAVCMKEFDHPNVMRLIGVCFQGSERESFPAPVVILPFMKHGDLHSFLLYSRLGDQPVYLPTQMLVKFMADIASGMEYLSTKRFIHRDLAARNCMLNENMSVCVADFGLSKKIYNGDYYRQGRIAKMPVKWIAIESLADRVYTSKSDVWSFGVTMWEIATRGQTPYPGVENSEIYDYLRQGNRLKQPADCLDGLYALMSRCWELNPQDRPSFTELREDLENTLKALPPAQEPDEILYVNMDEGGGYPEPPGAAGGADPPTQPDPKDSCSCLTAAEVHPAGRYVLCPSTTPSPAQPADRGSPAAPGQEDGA

MST4 = molecular target: T16, MST4 (Homo sapiens, UniProt Q9P289); test: KinomeScan; type: binding; conditions: 1uM
T16 construct: purchased DiscoveRx KINOMEscan

CLK4 = molecular target: T17, CLK4 (Homo sapiens, UniProt Q9HAZ1); test: KinomeScan; type: binding; conditions: 1uM
T17 construct: purchased DiscoveRx KINOMEscan

YANK1 = molecular target: T18, YANK1 (Homo sapiens, UniProt Q8WU08); test: KinomeScan; type: binding; conditions: 1uM
T18 construct: purchased DiscoveRx KINOMEscan
T18 sequence (Q8WU08 whole entry): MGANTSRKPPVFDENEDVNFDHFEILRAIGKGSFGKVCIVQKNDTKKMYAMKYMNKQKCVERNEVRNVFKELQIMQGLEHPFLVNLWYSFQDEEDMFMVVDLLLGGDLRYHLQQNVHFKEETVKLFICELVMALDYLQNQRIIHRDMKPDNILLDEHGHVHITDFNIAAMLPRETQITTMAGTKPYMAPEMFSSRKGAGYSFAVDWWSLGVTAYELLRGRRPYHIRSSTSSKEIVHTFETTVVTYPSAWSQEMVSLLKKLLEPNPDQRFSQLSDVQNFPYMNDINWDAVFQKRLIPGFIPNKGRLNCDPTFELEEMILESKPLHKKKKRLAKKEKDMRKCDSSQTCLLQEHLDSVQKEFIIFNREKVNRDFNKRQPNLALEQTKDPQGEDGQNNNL

KIT = molecular target: T19, KIT (Homo sapiens, UniProt P10721); test: KinomeScan; type: binding; conditions: 1uM
T19 construct: purchased DiscoveRx KINOMEscan
T19 sequence (P10721 26-976): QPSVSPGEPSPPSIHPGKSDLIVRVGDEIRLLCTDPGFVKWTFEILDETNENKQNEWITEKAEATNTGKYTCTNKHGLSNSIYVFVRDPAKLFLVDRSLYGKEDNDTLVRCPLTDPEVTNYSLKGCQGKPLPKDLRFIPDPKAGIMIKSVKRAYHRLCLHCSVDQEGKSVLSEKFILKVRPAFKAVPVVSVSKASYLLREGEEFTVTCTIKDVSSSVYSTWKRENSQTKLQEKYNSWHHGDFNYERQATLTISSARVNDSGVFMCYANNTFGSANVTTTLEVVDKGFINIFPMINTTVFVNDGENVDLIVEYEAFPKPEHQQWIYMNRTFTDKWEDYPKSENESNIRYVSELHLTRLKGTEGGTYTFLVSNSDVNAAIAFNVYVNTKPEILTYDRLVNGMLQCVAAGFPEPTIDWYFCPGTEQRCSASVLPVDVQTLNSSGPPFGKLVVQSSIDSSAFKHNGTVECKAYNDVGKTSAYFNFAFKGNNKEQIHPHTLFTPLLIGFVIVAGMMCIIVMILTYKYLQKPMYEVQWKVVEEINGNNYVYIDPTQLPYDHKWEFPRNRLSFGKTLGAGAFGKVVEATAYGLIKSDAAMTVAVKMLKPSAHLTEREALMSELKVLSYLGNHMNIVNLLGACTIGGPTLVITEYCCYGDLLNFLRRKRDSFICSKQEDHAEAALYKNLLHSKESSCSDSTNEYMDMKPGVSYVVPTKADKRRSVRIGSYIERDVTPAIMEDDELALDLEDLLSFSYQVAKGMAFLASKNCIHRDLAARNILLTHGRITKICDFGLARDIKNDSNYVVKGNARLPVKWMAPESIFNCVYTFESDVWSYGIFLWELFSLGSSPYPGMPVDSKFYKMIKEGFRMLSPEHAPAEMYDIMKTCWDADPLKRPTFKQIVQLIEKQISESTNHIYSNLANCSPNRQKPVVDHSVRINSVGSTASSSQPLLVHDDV

BMX = molecular target: T20, BMX (Homo sapiens, UniProt P51813); test: KinomeScan; type: binding; conditions: 1uM
T20 construct: purchased DiscoveRx KINOMEscan

[2] = molecular target: T21, EGFR(L747-S752del, P753S) (Homo sapiens, UniProt P00533, DEL747-752/P753S); test: KinomeScan; type: binding; conditions: 1uM
T21 construct: purchased DiscoveRx KINOMEscan

BRAF = molecular target: T22, BRAF (Homo sapiens, UniProt P15056); test: KinomeScan; type: binding; conditions: 1uM
T22 construct: purchased DiscoveRx KINOMEscan

TAOK3 = molecular target: T23, TAOK3 (Homo sapiens, UniProt Q9H2K8); test: KinomeScan; type: binding; conditions: 1uM
T23 construct: purchased DiscoveRx KINOMEscan

PAK3 = molecular target: T24, PAK3 (Homo sapiens, UniProt O75914); test: KinomeScan; type: binding; conditions: 1uM
T24 construct: purchased DiscoveRx KINOMEscan

MYO3B = molecular target: T25, MYO3B (Homo sapiens, UniProt Q8WXR4); test: KinomeScan; type: binding; conditions: 1uM
T25 construct: purchased DiscoveRx KINOMEscan

STK39 = molecular target: T26, STK39 (Homo sapiens, UniProt Q9UEW8); test: KinomeScan; type: binding; conditions: 1uM
T26 construct: purchased DiscoveRx KINOMEscan

BMPR1B = molecular target: T27, BMPR1B (Homo sapiens, UniProt O00238); test: KinomeScan; type: binding; conditions: 1uM
T27 construct: purchased DiscoveRx KINOMEscan

PCTK3 = molecular target: T28, PCTK3 (Homo sapiens, UniProt Q07002); test: KinomeScan; type: binding; conditions: 1uM
T28 construct: purchased DiscoveRx KINOMEscan

PRKCI = molecular target: T29, PRKCI (Homo sapiens, UniProt P41743); test: KinomeScan; type: binding; conditions: 1uM
T29 construct: purchased DiscoveRx KINOMEscan

PYK2 = molecular target: T30, PYK2 (Homo sapiens, UniProt Q14289); test: KinomeScan; type: binding; conditions: 1uM
T30 construct: purchased DiscoveRx KINOMEscan

DRAK1 = molecular target: T31, DRAK1 (Homo sapiens, UniProt Q9UEE5); test: KinomeScan; type: binding; conditions: 1uM
T31 construct: purchased DiscoveRx KINOMEscan
T31 sequence (Q9UEE5 whole entry): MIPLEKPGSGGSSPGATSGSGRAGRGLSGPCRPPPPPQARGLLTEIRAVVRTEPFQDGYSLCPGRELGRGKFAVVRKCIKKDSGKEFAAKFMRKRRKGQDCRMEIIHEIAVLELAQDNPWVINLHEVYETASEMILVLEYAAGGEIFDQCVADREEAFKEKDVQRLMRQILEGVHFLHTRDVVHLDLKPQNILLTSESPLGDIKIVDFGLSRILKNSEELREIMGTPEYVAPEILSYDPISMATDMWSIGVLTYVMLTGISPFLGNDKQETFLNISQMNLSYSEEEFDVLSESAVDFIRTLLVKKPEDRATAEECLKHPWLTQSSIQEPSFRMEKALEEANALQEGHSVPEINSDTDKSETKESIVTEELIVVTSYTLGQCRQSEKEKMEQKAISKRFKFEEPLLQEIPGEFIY

PI4KA = molecular target: T32, PI4KA (Homo sapiens, UniProt P42356); test: ADP-glo biochemical assay
T32 construct: purchased Invitrogen
T32 sequence (P42356 whole entry): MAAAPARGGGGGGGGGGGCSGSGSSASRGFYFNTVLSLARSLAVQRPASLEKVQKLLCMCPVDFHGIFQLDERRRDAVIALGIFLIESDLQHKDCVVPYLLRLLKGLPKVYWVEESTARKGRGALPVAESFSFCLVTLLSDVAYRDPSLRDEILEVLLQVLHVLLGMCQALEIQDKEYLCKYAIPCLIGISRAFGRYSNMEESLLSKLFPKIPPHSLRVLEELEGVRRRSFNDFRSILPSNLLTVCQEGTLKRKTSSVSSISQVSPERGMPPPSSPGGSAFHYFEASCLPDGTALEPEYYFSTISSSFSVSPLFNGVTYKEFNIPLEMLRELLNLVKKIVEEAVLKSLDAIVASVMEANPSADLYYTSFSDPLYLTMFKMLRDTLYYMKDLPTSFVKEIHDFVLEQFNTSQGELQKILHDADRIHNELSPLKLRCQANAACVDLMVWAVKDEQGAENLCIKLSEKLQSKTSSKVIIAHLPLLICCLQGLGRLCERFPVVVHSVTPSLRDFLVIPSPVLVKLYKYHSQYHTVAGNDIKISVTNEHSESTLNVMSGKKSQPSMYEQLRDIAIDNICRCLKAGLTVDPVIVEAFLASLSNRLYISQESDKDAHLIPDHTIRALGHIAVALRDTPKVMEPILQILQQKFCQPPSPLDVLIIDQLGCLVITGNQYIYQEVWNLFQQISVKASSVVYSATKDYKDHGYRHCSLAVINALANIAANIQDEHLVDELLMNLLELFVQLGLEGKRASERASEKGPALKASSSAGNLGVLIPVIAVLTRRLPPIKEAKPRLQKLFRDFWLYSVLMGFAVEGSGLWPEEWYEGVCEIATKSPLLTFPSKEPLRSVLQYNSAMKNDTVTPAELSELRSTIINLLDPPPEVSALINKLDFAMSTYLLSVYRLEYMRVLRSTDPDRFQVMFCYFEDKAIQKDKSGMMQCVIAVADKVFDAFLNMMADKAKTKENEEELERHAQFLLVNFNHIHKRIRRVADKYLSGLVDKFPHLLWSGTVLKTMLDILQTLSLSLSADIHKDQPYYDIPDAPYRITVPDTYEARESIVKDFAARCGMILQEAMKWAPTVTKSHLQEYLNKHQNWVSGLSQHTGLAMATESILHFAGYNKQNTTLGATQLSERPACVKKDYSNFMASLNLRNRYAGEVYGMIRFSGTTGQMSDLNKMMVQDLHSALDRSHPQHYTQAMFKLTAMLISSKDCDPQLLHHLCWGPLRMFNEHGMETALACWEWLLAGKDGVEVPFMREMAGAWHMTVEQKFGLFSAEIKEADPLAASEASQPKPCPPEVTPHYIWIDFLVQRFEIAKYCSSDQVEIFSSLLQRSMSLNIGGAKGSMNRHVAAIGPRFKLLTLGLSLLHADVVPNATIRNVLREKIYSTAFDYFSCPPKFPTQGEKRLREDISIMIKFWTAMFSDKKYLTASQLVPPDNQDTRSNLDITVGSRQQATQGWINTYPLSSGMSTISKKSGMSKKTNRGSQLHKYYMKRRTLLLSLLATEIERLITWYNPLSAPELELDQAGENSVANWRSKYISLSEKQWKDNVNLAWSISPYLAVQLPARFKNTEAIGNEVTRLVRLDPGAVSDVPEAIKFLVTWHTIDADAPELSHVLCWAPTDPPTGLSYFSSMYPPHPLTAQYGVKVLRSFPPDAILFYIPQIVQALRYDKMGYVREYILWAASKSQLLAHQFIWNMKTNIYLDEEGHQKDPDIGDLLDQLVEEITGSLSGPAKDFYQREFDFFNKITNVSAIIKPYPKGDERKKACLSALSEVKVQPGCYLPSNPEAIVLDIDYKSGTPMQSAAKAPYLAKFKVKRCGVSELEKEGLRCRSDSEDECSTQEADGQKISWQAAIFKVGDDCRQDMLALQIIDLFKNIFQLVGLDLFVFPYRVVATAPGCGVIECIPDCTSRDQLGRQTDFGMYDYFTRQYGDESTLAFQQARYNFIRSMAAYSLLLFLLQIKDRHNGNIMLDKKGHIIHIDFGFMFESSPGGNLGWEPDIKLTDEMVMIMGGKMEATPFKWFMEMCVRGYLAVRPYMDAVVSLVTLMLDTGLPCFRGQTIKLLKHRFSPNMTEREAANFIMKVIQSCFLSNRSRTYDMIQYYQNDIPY
Protocol: The reaction in each tube was started immediately by adding ATP and kept going for an hour under 37°C. After the tube cooled for 5 minutes at room temperature, 5 μL solvent reactions were carried out in a 384-well plate. Then 5 μL of ADP-Glo™ reagent was added into each well to stop the reaction and consume the remaining ADP within 40 minutes. At the end, 10 μL of kinase detection reagent was added into the well and incubated for 30 minutes to produce a luminescence signal. Luminescence signal was measured with an automated plate reader (Perkin-Elmer Envision) and each measurement was performed in triplicate.

Q: Which results are given for `Cc1nc(NC(=O)[C@@H](N)C(C)C)sc1-c1cnc(Cl)c(NS(=O)(=O)c2ccccc2)c1` [PI3KD-IN-015]?
A: GI50 [1]: 1 to 10 µM; KinomeScan MLK1 (MLK1): 100; KinomeScan TAK1 (TAK1): 100; GI50 (AML patient primary cell; AML1, patient primary cell AML1): 1.83 µM; GI50 (AML patient primary cell; AML3, patient primary cell AML3): 9.2 µM; GI50 (AML patient primary cell; most of AML patient cells): < 10 µM; GI50 (AML patient primary cell; patient primary cell AML2): 0.85 µM; GI50 (AML patient primary cell; patient primary cell AML4): 2.8 µM; GI50 (AML patient primary cell; patient primary cell AML5): 6.3 µM; GI50 (AML patient primary cell; patient primary cell AML6): > 10 µM; KinomeScan HUNK (HUNK): 100; KinomeScan IGF1R (IGF1R): 100; KinomeScan ALK(L1196M) (ALK(L1196M)): 100; KinomeScan TTK (TTK): 96; KinomeScan IRAK4 (IRAK4): 67; KinomeScan CAMKK2 (CAMKK2): 96; KinomeScan SgK110 (SgK110): 100; autophagy induction (LC3B II) (LC3B II; HT cells and MEC-1 cells): significantly increased the production of LC3B II; autophagy induction (LC3B II; MOLM-13 cell): no apparent autophagy induction; KinomeScan CAMK2D (CAMK2D): 95; KinomeScan GSK3B (GSK3B): 97; KinomeScan WEE1 (WEE1): 100; KinomeScan ERK8 (ERK8): 98; KinomeScan CTK (CTK): 93; KinomeScan AXL (AXL): 97; KinomeScan MST4 (MST4): 86; KinomeScan CLK4 (CLK4): 100; KinomeScan YANK1 (YANK1): 100; KinomeScan KIT (KIT): 92; KinomeScan BMX (BMX): 100; KinomeScan EGFR(L747-S752del, P753S) [2]: 100; KinomeScan BRAF (BRAF): 93; KinomeScan TAOK3 (TAOK3): 93; KinomeScan PAK3 (PAK3): 92; KinomeScan MYO3B (MYO3B): 100; KinomeScan STK39 (STK39): 100; KinomeScan BMPR1B (BMPR1B): 80; KinomeScan PCTK3 (PCTK3): 100; KinomeScan PRKCI (PRKCI): 100; KinomeScan PYK2 (PYK2): 95; KinomeScan DRAK1 (DRAK1): 91; IC50 (PI4KA): > 10 µM
